Source: publication PMC6053601, “The role of the jaw subdomain of peptidoglycan glycosyltransferases for lipid II polymerization” (The Cell Surface, 2018)

What was measured:
[1] = target: T1, Staphylococcus aureus monofunctional glycosyltransferase (SaMGT) (Staphylococcus aureus, UniProt Q7A0I6); assay: ITC (VP-ITC, […] °C, sequential binding site model)
T1 construct: gene mgt; wild-type full-length SaMGT (residues Q28-R269)

[2] = target: T2, Staphylococcus aureus monofunctional glycosyltransferase (SaMGT) (Staphylococcus aureus, UniProt Q7A0I6, E100Q); assay: X-ray crystal structure, […] Å (re-refinement of 3HZS, polder omit maps); assay type: binding
T2 construct: gene mgt

## C=C(C/C=C(\C)CCC=C(C)C)CCC(C)(C)/C=C/CC/C(C)=C\CO[C@H](COP(=O)(O)O[C@H]1O[C@H](C(N)=O)[C@@](C)(O)[C@H](OC(N)=O)[C@H]1O[C@@H]1O[C@H](CO[C@@H]2O[C@H](CO)[C@@H](O)[C@H](O)[C@H]2O)[C@@H](O[C@@H]2O[C@H](C)[C@@H](O[C@@H]3O[C@H](C(=O)NC4=C(O)CCC4=O)[C@H](O)[C@H](O)[C@H]3O)[C@H](O)[C@H]2NC(C)=O)[C@H](O)[C@H]1NC(C)=O)C(=O)O [MoeA, moenomycin A]
[1]
  Kd: 540 nM
[2]
  X-ray crystal structure, 2.1 Å (re-refinement of 3HZS, polder omit maps): Overall view of the re-refined structure of SaMGT E100Q mutant with bound MoeA (PDB ID code 6FTB).
